Data from patent US4138554A, “7-[D-α-(4-Hydroxy-1,5-naphthyridine-3-carboxamido)-α-phenyl (and p-hydroxyphenyl)acetamido]-3-carbamoyloxymethyl-3-cephem-4-carboxylic acids” (priority 1977, dated 1979).
In brackets after ≈: the same amount, converted by molar mass. Read-outs that look alike come from different tables or passages of the source.

What was measured:
Type in all cases: cell-based
S. aureus = test: MIC by serial two-fold agar dilution (Mueller-Hinton agar), S. aureus; settings: Staphylococcus aureus, read-out: MIC
Protocol: (§1) Minimum inhibitory concentrations (MIC) of BB-S520 were determined by serial two-fold agar dilution method using Steers' apparatus on Meuller-Hinton agar plate against 31 test organisms for the primary screening and also against 61 strains of Pseudomonas aeruginosa for the secondary evaluation. The results are shown in Table 1 and Table 2 along with those of BB-S514 and sulbenicillin.
(§2) Minimum inhibitory concentrations (MIC) of cephalosporins in the present study were determined by serial two-fold agar dilution method using Steers' apparatus on Mueller-Hinton agar plate against 31 test organisms for the primary screening and also against 61 strains of Pseudomonas aeruginosa for the secondary evaluation.

E. cloacae = test: MIC by serial two-fold agar dilution (Mueller-Hinton agar), E. cloacae; settings: Enterobacter cloacae, Table 1
Protocol: as §1, §2

P. vulgaris = test: MIC by serial two-fold agar dilution (Mueller-Hinton agar), P. vulgaris; settings: Proteus vulgaris; P. vulgaris, Table 1; read-out: MIC
Protocol: as §1, §2

S. enteritidis = test: MIC by serial two-fold agar dilution (Mueller-Hinton agar), S. enteritidis; settings: Salmonella enterica; S. enteritidis, Table 1; read-out: MIC
Protocol: as §1, §2

Klebsiella sp. = test: MIC by serial two-fold agar dilution (Mueller-Hinton agar), Klebsiella sp.; settings: Klebsiella sp., Table 1; read-out: MIC
Protocol: as §1, §2

Pseudomonas aeruginosa = test: MIC by agar dilution against 61 strains of Pseudomonas aeruginosa, secondary evaluation; settings: for MIC: Pseudomonas aeruginosa, read-out: MIC
Protocol: as §1, §2

P. morganii = test: MIC by serial two-fold agar dilution (Mueller-Hinton agar), P. morganii; settings: Morganella morganii; P. morganii, Table 1; read-out: MIC
Protocol: as §1, §2

S. marcescens = test: MIC by serial two-fold agar dilution (Mueller-Hinton agar), S. marcescens; settings: Serratia marcescens; S. marcescens, Table 1; read-out: MIC
Protocol: as §1, §2

K. pneumoniae = test: MIC by serial two-fold agar dilution (Mueller-Hinton agar), K. pneumoniae; settings: Klebsiella pneumoniae, K. pneumoniae, Table 1
Protocol: as §1, §2

P. mirabilis = test: MIC by serial two-fold agar dilution (Mueller-Hinton agar), P. mirabilis; settings: Proteus mirabilis; P. mirabilis, Table 1; read-out: MIC
Protocol: as §1, §2

Work on CC(=O)OCC1=C(C(=O)O)N2C(=O)C(NC(=O)C(NC(=O)c3cnc4cccnc4c3O)c3ccccc3)C2SC1 (stereo not drawn) [BB-S514] yielded an MIC (S. aureus; S. aureus BX-1633, Table 1) of 3.1 µg/mL (≈ 5.37 µM), an MIC (S. aureus; S. aureus Smith (1st line), Table 1) of 3.1 µg/mL (≈ 5.37 µM) and an MIC (S. aureus; S. aureus Smith (2nd line), Table 1) of 6.3 µg/mL (≈ 10.9 µM). It also gave an MIC (S. aureus; S. aureus, unnamed strain (4th S. aureus line), Table 1) of 25 µg/mL (≈ 43.3 µM), an MIC (S. aureus; S. aureus, unnamed strain (5th S. aureus line), Table 1) of 6.3 µg/mL (≈ 10.9 µM) and an MIC (S. aureus; S. aureus, unnamed strain (6th S. aureus line), Table 1) of over 100 µg/mL. For the same compound, the MIC (E. cloacae; E. cloacae (1st line)) was 25 µg/mL (≈ 43.3 µM), the MIC (E. cloacae; E. cloacae (2nd line)) was 50 µg/mL (≈ 86.6 µM) and the MIC (E. cloacae; E. cloacae (3rd line)) was 25 µg/mL (≈ 43.3 µM). It also gave an MIC (P. vulgaris) of 25 µg/mL (≈ 43.3 µM), an MIC (S. enteritidis) of 6.3 µg/mL (≈ 10.9 µM) and an MIC (Klebsiella sp.) of 12.5 µg/mL (≈ 21.6 µM). For the same compound, the “Mean % Relative Activity (Sulbenicillin = 100%)” value (Pseudomonas aeruginosa; Ps. aeruginosa (61 strains), from geometric means of MICs in Table 2) was 480%, the MIC (Pseudomonas aeruginosa; BBRI Pa-No. 1, D15, Table 2) was 6.3 µg/mL (≈ 10.9 µM) and the MIC (Pseudomonas aeruginosa; BBRI Pa-No. 2, VA, Table 2) was 6.3 µg/mL (≈ 10.9 µM). For the same compound, the MIC (Pseudomonas aeruginosa; BBRI Pa-No. 3, 1449VA, Table 2) was 3.1 µg/mL (≈ 5.37 µM), the MIC (Pseudomonas aeruginosa; BBRI Pa-No. 4, H9 D113, Table 2) was 12.5 µg/mL (≈ 21.6 µM) and the MIC (Pseudomonas aeruginosa; BBRI Pa-No. 5, M4865KC, Table 2) was 6.3 µg/mL (≈ 10.9 µM). The MIC (Pseudomonas aeruginosa; BBRI Pa-No. 6, No. 5, Table 2) was 25 µg/mL (≈ 43.3 µM), the MIC (Pseudomonas aeruginosa; BBRI Pa-No. 7, Table 2) was 12.5 µg/mL (≈ 21.6 µM) and the MIC (Pseudomonas aeruginosa; BBRI Pa-No. 8, Table 2) was 6.3 µg/mL (≈ 10.9 µM). The MIC (Pseudomonas aeruginosa; BBRI Pa-No. 9, Yale, Table 2) was 6.3 µg/mL (≈ 10.9 µM), the MIC (Pseudomonas aeruginosa; BBRI Pa-No. 10, Table 2) was 50 µg/mL (≈ 86.6 µM) and the MIC (Pseudomonas aeruginosa; BBRI Pa-No. 11, Table 2) was 6.3 µg/mL (≈ 10.9 µM). For the same compound, the MIC (Pseudomonas aeruginosa; BBRI Pa-No. 12, Table 2) was 6.3 µg/mL (≈ 10.9 µM), the MIC (Pseudomonas aeruginosa; BBRI Pa-No. 14, Table 2) was 6.3 µg/mL (≈ 10.9 µM) and the MIC (Pseudomonas aeruginosa; BBRI Pa-No. 15, Table 2) was 12.5 µg/mL (≈ 21.6 µM). For the same compound, the MIC (Pseudomonas aeruginosa; BBRI Pa-No. 16, No. 130, Table 2) was 1.6 µg/mL (≈ 2.77 µM), the MIC (Pseudomonas aeruginosa; BBRI Pa-No. 17, H6 D114, Table 2) was 3.1 µg/mL (≈ 5.37 µM) and the MIC (Pseudomonas aeruginosa; BBRI Pa-No. 18, H8 D121, Table 2) was 6.3 µg/mL (≈ 10.9 µM). It also gave an MIC (Pseudomonas aeruginosa; BBRI Pa-No. 19, Table 2) of 3.1 µg/mL (≈ 5.37 µM), an MIC (Pseudomonas aeruginosa; BBRI Pa-No. 20, Table 2) of 6.3 µg/mL (≈ 10.9 µM) and an MIC (Pseudomonas aeruginosa; BBRI Pa-No. 21, Table 2) of 6.3 µg/mL (≈ 10.9 µM). The MIC (Pseudomonas aeruginosa; BBRI Pa-No. 23, Table 2) was 6.3 µg/mL (≈ 10.9 µM), the MIC (Pseudomonas aeruginosa; BBRI Pa-No. 24, Table 2) was 50 µg/mL (≈ 86.6 µM) and the MIC (Pseudomonas aeruginosa; BBRI Pa-No. 25, Table 2) was 1.6 µg/mL (≈ 2.77 µM). For the same compound, the MIC (Pseudomonas aeruginosa; BBRI Pa-No. 26, Ps32, Table 2) was 3.1 µg/mL (≈ 5.37 µM), the MIC (Pseudomonas aeruginosa; BBRI Pa-No. 28, CPH10527/72, Table 2) was 6.3 µg/mL (≈ 10.9 µM) and the MIC (Pseudomonas aeruginosa; BBRI Pa-No. 29, D122, Table 2) was 3.1 µg/mL (≈ 5.37 µM). The MIC (Pseudomonas aeruginosa; BBRI Pa-No. 30, Table 2) was 6.3 µg/mL (≈ 10.9 µM), the MIC (Pseudomonas aeruginosa; BBRI Pa-No. 31, Table 2) was 1.6 µg/mL (≈ 2.77 µM) and the MIC (Pseudomonas aeruginosa; BBRI Pa-No. 32, Table 2) was 6.3 µg/mL (≈ 10.9 µM). For the same compound, the MIC (Pseudomonas aeruginosa; BBRI Pa-No. 33, Table 2) was 25 µg/mL (≈ 43.3 µM), the MIC (Pseudomonas aeruginosa; BBRI Pa-No. 34, Table 2) was 6.3 µg/mL (≈ 10.9 µM) and the MIC (Pseudomonas aeruginosa; BBRI Pa-No. 35, Table 2) was 25 µg/mL (≈ 43.3 µM). The MIC (Pseudomonas aeruginosa; BBRI Pa-No. 36, Table 2) was 0.4 µg/mL (≈ 0.693 µM), the MIC (Pseudomonas aeruginosa; BBRI Pa-No. 37, Table 2) was 6.3 µg/mL (≈ 10.9 µM) and the MIC (Pseudomonas aeruginosa; BBRI Pa-No. 38, Table 2) was 12.5 µg/mL (≈ 21.6 µM). The MIC (Pseudomonas aeruginosa; BBRI Pa-No. 39, Table 2) was 3.1 µg/mL (≈ 5.37 µM), the MIC (Pseudomonas aeruginosa; BBRI Pa-No. 41, Table 2) was 6.3 µg/mL (≈ 10.9 µM) and the MIC (Pseudomonas aeruginosa; BBRI Pa-No. 42, Table 2) was 12.5 µg/mL (≈ 21.6 µM). The MIC (Pseudomonas aeruginosa; BBRI Pa-No. 43, Table 2) was 6.3 µg/mL (≈ 10.9 µM), the MIC (Pseudomonas aeruginosa; BBRI Pa-No. 44, Table 2) was 6.3 µg/mL (≈ 10.9 µM) and the MIC (Pseudomonas aeruginosa; BBRI Pa-No. 51, Table 2) was 6.3 µg/mL (≈ 10.9 µM). The MIC (Pseudomonas aeruginosa; BBRI Pa-No. 52, Table 2) was 6.3 µg/mL (≈ 10.9 µM), the MIC (Pseudomonas aeruginosa; BBRI Pa-No. 53, Table 2) was 6.3 µg/mL (≈ 10.9 µM) and the MIC (Pseudomonas aeruginosa; BBRI Pa-No. 54, Table 2) was 6.3 µg/mL (≈ 10.9 µM). For the same compound, the MIC (Pseudomonas aeruginosa; BBRI Pa-No. 55, Table 2) was 6.3 µg/mL (≈ 10.9 µM), the MIC (Pseudomonas aeruginosa; BBRI Pa-No. 56, Table 2) was 6.3 µg/mL (≈ 10.9 µM) and the MIC (Pseudomonas aeruginosa; BBRI Pa-No. 57, Table 2) was 3.1 µg/mL (≈ 5.37 µM). For the same compound, the MIC (Pseudomonas aeruginosa; BBRI Pa-No. 58, Table 2) was 12.5 µg/mL (≈ 21.6 µM), the MIC (Pseudomonas aeruginosa; BBRI Pa-No. 59, Table 2) was 6.3 µg/mL (≈ 10.9 µM) and the MIC (Pseudomonas aeruginosa; BBRI Pa-No. 60, Table 2) was 3.1 µg/mL (≈ 5.37 µM). The MIC (Pseudomonas aeruginosa; BBRI Pa-No. 61, Table 2) was 6.3 µg/mL (≈ 10.9 µM), the MIC (Pseudomonas aeruginosa; BBRI Pa-No. 62, Table 2) was 12.5 µg/mL (≈ 21.6 µM) and the MIC (Pseudomonas aeruginosa; BBRI Pa-No. 64, Table 2) was 6.3 µg/mL (≈ 10.9 µM). It also gave an MIC (Pseudomonas aeruginosa; BBRI Pa-No. 65, Table 2) of 3.1 µg/mL (≈ 5.37 µM), an MIC (Pseudomonas aeruginosa; BBRI Pa-No. 66, Table 2) of 3.1 µg/mL (≈ 5.37 µM) and an MIC (Pseudomonas aeruginosa; BBRI Pa-No. 67, Table 2) of 12.5 µg/mL (≈ 21.6 µM). For the same compound, the MIC (Pseudomonas aeruginosa; BBRI Pa-No. 68, Table 2) was 12.5 µg/mL (≈ 21.6 µM), the MIC (Pseudomonas aeruginosa; BBRI Pa-No. 69, Table 2) was 25 µg/mL (≈ 43.3 µM) and the MIC (Pseudomonas aeruginosa; BBRI Pa-No. 70, K-Ps102 (CR-102), Table 2) was 6.3 µg/mL (≈ 10.9 µM). It also gave an MIC (Pseudomonas aeruginosa; GN315, BBRI Pa-No. 27, GN315, Table 2) of 6.3 µg/mL (≈ 10.9 µM), an MIC (Pseudomonas aeruginosa; GN4925, BBRI Pa-No. 45, GN4925, Table 2) of 12.5 µg/mL (≈ 21.6 µM) and an MIC (P. morganii) of over 100 µg/mL. It also gave an MIC (S. marcescens) of over 100 µg/mL, an MIC (K. pneumoniae) of 6.3 µg/mL (≈ 10.9 µM) and an MIC (P. mirabilis) of 0.8 µg/mL (≈ 1.39 µM).
